From patent US20060235225A1, “Crystals of 5-[2-amino-4-(2-furyl) pyrimidin-5-yl]-1-methylpyridin-2(1H)-one and processes for preparing the same” (Eisai Co., Ltd., priority 2005, published 2006)

Legend:
[1] = Stability against light (impurity content by HPLC after storage); type: physicochemical
Method: The respective crystals obtained in Example 1 and Comparative Example 2 (the crystal form A and the crystal form B) were stored for 1, 3 and 6 months under conditions of 25° C./1000 Lx (apparatus for light stability test; Nagano Science Co. Ltd) and 25° C./dark (control), and impurity contents were measured by HPLC method to investigate stability against exposure to light for the respective crystals. The conditions for HPLC method are shown below.
(Calculation Method of Impurity Content)
Individual impurity content (%)=(Peak area of individual impurity)/(total of all peak areas)×100
Peaks with impurity contents of 0.05% or greater were recorded as impurity peaks, and their total was recorded as the impurity content of the crystals. Impurity content (%)=Total of individual impurity contents (%)

[2] = Variable-temperature powder X-ray diffraction and DSC (change of crystal form on heating); type: physicochemical
Method: The measuring conditions were the same as for the powder X-ray diffraction pattern measurement described above, except for the measuring temperature.
DSC analysis was conducted under the following conditions, using approximately 3 mg each of the crystals obtained in Example 1 and Comparative Example 2 (the crystal form A and the crystal form B). The DSC patterns of the respective crystals are shown in FIG. 6 and FIG. 7 (magnification of 40-230° C.), and the endothermic peaks and exothermic peaks are shown in Table 2. • Measuring apparatus: DSC822^e by Mettler Toledo • Sample pan material: aluminum • Nitrogen gas flow (40 mL/min) • Start temperature: 25° C. • End temperature: 260° C.
Temperature elevating rate: 5° C./min

SMILES | Impurity content ([1]; 25° C./1000Lx, storage period 1 month, listed as A) [%] | Impurity content ([1]; 25° C./1000Lx, storage period 3 months, listed as A) [%] | Impurity content ([1]; 25° C./1000Lx, storage period 6 months, listed as A) [%] | Stability against exposure to light (comparison of crystal forms) ([1]; 25° C./1000 Lx, up to 6 months) | Impurity content ([1]; 25° C./dark (control), storage period 1 month, listed as A) [%] | Impurity content ([1]; 25° C./dark (control), storage period 3 months, listed as A) [%] | Impurity content ([1]; 25° C./dark (control), storage period 6 months, listed as A) [%] | Impurity content ([1]; Initial, before storage, HPLC, listed as A) [%] | Change in crystal form by heating ([2]; sample temperature 30° C. to 260° C.) | Impurity content ([1]; 25° C./1000Lx, storage period 1 month, listed as B) [%] | Impurity content ([1]; 25° C./1000Lx, storage period 3 months, listed as B) [%] | Impurity content ([1]; 25° C./1000Lx, storage period 6 months, listed as B) [%] | Impurity content ([1]; 25° C./dark (control), storage period 1 month, listed as B) [%] | Impurity content ([1]; 25° C./dark (control), storage period 3 months, listed as B) [%] | Impurity content ([1]; 25° C./dark (control), storage period 6 months, listed as B) [%] | Impurity content ([1]; Initial, before storage, HPLC, listed as B) [%] | Temperature of transformation to another crystal form (B′) ([2]; heating 30° C. to 260° C.) | Temperature of transformation to the crystal form A ([2]; heating 30° C. to 260° C.)
Cn1cc(-c2cnc(N)nc2-c2ccco2)ccc1=O [Crystal form A, 5-[2-amino-4-(2-furyl)pyrimidin-5-yl]-1-methylpyridin-2(1H)-one] | 0.10 | 0.07 | 0.08 | more stable against exposure to light than the crystal form B | 0.14 | 0.12 | 0.12 | 0.06 | undergoes no change in crystal form by heating | – | – | – | – | – | – | – | – | –
Cn1cc(-c2cnc(N)nc2-c2ccco2)ccc1=O [Crystal form B, 5-[2-amino-4-(2-furyl)pyrimidin-5-yl]-1-methylpyridin-2(1H)-one] | – | – | – | – | – | – | – | – | – | 0.48 | 0.52 | 0.81 | 0.28 | 0.25 | 0.23 | 0.34 | about 90 °C | about 170 °C
